Measured values published in patent US9539245B2, “Combination of immunotherapies with activators of Tie-2” (Aerpio Therapeutics, Inc., priority 2014, dated 2017).
Entries after “also recorded” stand apart in the source; their conditions may differ.

How the values were obtained:
Tie-2 [1] = assay: Western blot and staining of the stroke hemisphere of treated mice; set-up: species or system mouse; settings: in vivo
Description: (§1) For the Western blot experiments, samples were solubilized in urea/SDS buffer (2.3 M urea, 1.5% SDS, 50 mM Tris, 25 mM TCEP, and 0.01% BPB) for 1.5 h at 30° C. with shaking. Solubilized samples were loaded into Tris-HCl Bis-acrylamide gels (8-15%), electrophoresed, and subsequently transferred to nitrocellulose membranes at 4° C. overnight. Membranes were blocked for 1 hour at room temperature on a 1× Roti®-block (Roth™), incubated with primary antibodies overnight at 4° C., washed with PBS-T (0.5% Tween®-20), incubated with horseradish peroxidase-conjugated or fluorescent secondary antibodies (LI-COR™) for 1 h at room temperature. Membranes were imaged in Odyssey® (LI-COR™) imaging device and quantitation was performed on exported raw tiff files using Image Studio™ 2.1 software (LI-COR™).
Activation of Tie-2 upon treatment indicated by higher pTie-2 and pAkt levels in stroke hemispheres confirms in vivo activity (FIG. 15). […] FIG. 16 illustrates representative images (n=2 each group) of Tie-2 (red) and pTie-2 (green) staining of the stroke hemisphere.

Tie-2 [2] = assay: Western blot analysis of MBMECs pre-treated with hAng-2; assay type: cell-based, mouse; settings: MBMECs pretreated with hAng-2 (16 h, 500 ng/ml), then Tie-2 activator 50 μM, 10 min
Description: as §1
Activation of Tie-2/Akt by the Tie-2 activator alone indicates a direct and specific effect of this drug. Phosphorylation of VE-Cadherin responsible for increased junctional permeability was reduced upon treatment with the Tie-2 activator (FIGS. 13 and 14). This observation explains in part the decreased permeability and stroke size in vivo.

[3] = test system: stroke after MCAO in mice; assay: Middle cerebral artery occlusion (MCAO) stroke model in mice; assay type: in vivo, mouse
Description: Mice with endothelial-specific overexpression of hAng-2 (DT mice) underwent a permanent middle cerebral artery occlusion (MCAO). After a permanent MCAO was performed, animals were allowed to survive for 24 hours or 72 hours. Mice were anesthetized intraperitoneally (i.p.) with a combination of midazolam/medetomidine/fentanyl (5/0.5/0.05 mg/kg body mass). Anesthesia was terminated by i.p. injection of atipamezol/naloxone/flumazenil 2.5/1.2/0.5 mg/kg body weight). Brains were isolated and frozen down in Tissue TEK® O.C.T. and stored at −80° C. until use. WT mice also underwent the procedure as controls.
Larger infarcts were detected in DT mice that were subjected to MCAO as compared to WT mice that were subjected to MCAO after 24 hours and 72 hours (FIG. 9). Additionally, the IgG permeability in the stroke area was increased in DT mice (FIG. 10). Mice were treated with a Tie-2 activator shown below: […]

[4] = test system: primary mouse brain endothelial cells (MBMECs); assay: Transendothelial electrical resistance (TEER) measurements of MBMEC monolayers; assay type: cell-based; settings: recombinant human Ang-2 treatment; CD1 mice; FIG. 1 PANEL B
Description: To assess the role of Angiopoietin 1 (Ang-1), Angiopoietin 2 (Ang-2), and a Tie-2 activator in modulating permeability at the blood-brain barrier transendothelial electrical resistance (TEER) measurements were performed to obtain continuous barrier tightness index of primary mouse brain endothelial cells (MBMECs).
TEER measurements were performed as follows: isolated mouse brain microvascular endothelial cells (MBMECs) (100,000 cells/cm^2, 4-6 mice/prep) were seeded onto 1 μm pore 24-well PET transwell inserts (Greiner Bio-One) pre-coated with fibronectin (5 μg/cm^2, Sigma-Aldrich™). The inserts were transferred to a cellZscope® device placed in a humidified incubator (37° C., 5% CO2) and impedance measurements obtained continuously. Treatment was started upon reaching a plateau in TEER levels.
Isolation of mouse brain microvascular endothelial cells (MBMECs) was conducted as follows: Meninges-free brains were pooled and homogenized followed by digesting the pellet with 0.75% Collagenase II (Worthington™) in buffer A (1:1:1 volume ratio) for 1 hour with shaking at 37° C. For removing myelin, samples were resuspended in 25% BSA and centrifuged at 1500×g for 30 min at 4° C., followed by digesting the pellet with Collagenase/Dispase® (Roche™) and DNase I (Worthington™) in buffer A for 12 min at 37° C. […]

MBMEC monolayers = assay: Transwell permeability assay of MBMEC monolayers with fluorescent tracers; assay type: cell-based, mouse (C57BL/6J); settings: MBMECs from C57BL/6J mice, FIG. 2
Description: MBMECs were isolated from CD1 and C57BL/6J mice pooling 4-6 animals in each preparation and cultured on transwell inserts. Permeability of the MBMEC monolayers to 0.45 kD Lucifer-Yellow (LY; Sigma™), Texas Red® 3 kD dextran (Invitrogen™), TMR 20 kD dextran (Sigma™) and 70 kD FITC dextran (Sigma™) was determined as follows. Medium from the bottom chamber at each time point was read in a fluorescence plate reader (Tecan™) at the corresponding tracer excitation/emission and normalized to the apical chamber fluorescence with the ratio for the control condition set to 100%.
To rule out the possibility that Ang-2-mediated permeability was specific to the CD1 strain of mice used in the experiment, transwell assays applying fluorescent dextrans (3 kD, 20 kD, and 70 kD) and Lucifer-Yellow (LY 0.45 kD), using C57BL/6J mice were conducted.

Molecule	Akt activation (pAkt) in the stroke hemisphere (Tie-2 [1]; Western blot, n=7, FIG. 15)	pTie-2 in the stroke hemisphere (Tie-2 [1]; treated mice compared to controls, FIGS. 15 and 16)	Akt activation (pAkt levels) (Tie-2 [2]; FIGS. 13 and 14)	Tie-2 activation (pTie-2 levels) (Tie-2 [2]; FIGS. 13 and 14)	phosphorylation of VE-Cadherin (pVE-Cadherin) (Tie-2 [2]; n=3)	stroke size (TTC staining) ([3]; WT mice after MCAO, compared to vehicle dH2O control, FIG. 11)	permeability to IgG in the stroke area ([3]; mice after MCAO, compared to control)	neurological behavior after stroke (behavior scoring test) ([3]; mice after stroke, FIG. 19)	transendothelial electrical resistance (TEER) of MBMECs [4]	permeability to tracers (fluorescent dextrans 3 kD, 20 kD, 70 kD and Lucifer-Yellow 0.45 kD) (MBMEC monolayers)
CCc1nc([C@H](Cc2ccc(NS(=O)(=O)O)cc2)NC(=O)[C@H](Cc2ccccc2)NC(=O)OC)cs1 [Tie-2 activator]	increased Akt activation	increased pTie-2 staining	increased Tie-2 and Akt activation	increased levels of pTie-2	decreased in tendency, but not significant	significantly decreased stroke sizes	Decreased permeability to IgG	improvement in neurological behavior		
rhAng-2: recombinant human angiopoietin 2, a Tie-2 ligand									decrease in TEER; also recorded: decrease in transendothelial electrical resistance	increased permeability to tracers of all sizes
